The values that follow come from patent publication USRE49816E1, “Dipeptides as inhibitors of human immunoproteasomes” (CORNELL UNIVERSITY, priority 2014, dated 2024).

Entries after “also recorded” stand apart in the source; their conditions may differ.

The test system of series [1] is TNBS-induced colitis. The note with it: Watanabe et al.; cited from earlier work.
Series [2] concerns the target hu i-20S β5i-subunit (Homo sapiens, UniProt P20618+P28062). Kind of series: N,C-capped dipeptides IC50, Ac-ANW-AMC fluorescence assay. Format: biochemical.
Protocol: All inhibitory assays for N,C capped dipeptides were performed in a black solid-bottom 96-well plate. In general, compound plates were prepared starting from 10 mM in 3× series dilution to 15 μM. 1 μl of DMSO stock was transferred to a black 96-well plate and 100 μL of reaction mixture were added 15 μM N-acetyl-Alanine-Asparagine-Tryptophan-7-amino-4-methylcourmarin (Ac-ANW-AMC) or 25 μM succinyl-Leucine-Leucine-Valine-Tyrosine-7-amino-4-methyl-courmarin (succ-LLVY-AMC), 0.4 nM hu i-20S β5i-subunit or 0.2 nM hu c-20S β5c-subunit, 0.02% SDS, 1% BSA, 0.5 mM EDTA in 20 mM HEPES buffer at pH7.5. The plates were then spun at 1000 rpm for 1 minute, and the fluorescence units of each well were recorded at λex=360 nm, λem=460 nm for 2 hours. The slopes of the initial linear range of the time course were used to calculate the velocity, and relative activities were normalized to the velocities of the DMSO control.
Series [3] deals with proteasome inside the Karpas 1106p cells. In words: Cell-based Proteasome-Glo assay after compound removal. Also noted: species or system human. The following applies: 4 hours, read-out: Proteasome-glo β5-IC50.
For series [4], the system named is Karpas 1106p cells. In words: Cytotoxicity (LD50) against Karpas lymphoma cells. The format is cell-based, human. The note with it: Table 3. The source says:
Table 3 lists the inhibition kinetic parameters, selectivity index, and calculated log Ps of selected dipeptides.

Series [5] relates to HepG2 human hepatoma cells. Kind of series: Cytotoxicity against HepG2. Format: cell-based. The following applies: concentrations up to 50 μM.
Series [6] has as its system human peripheral blood mononuclear cells. Kind of series: Cytotoxicity against PBMCs. The following applies: concentrations up to 50 μM. The format is cell-based.
Series [7] concerns human B-lymphoma cell line. In words: Cytotoxicity against B-lymphoma cell line. Format: cell-based. The following applies: concentrations up to 50 μM.
In series [8] the test system is RAW264 GFP-LC3 cells. In words: Autophagy induction in RAW264 GFP-LC3 cells. Format: cell-based, mouse. The following applies: 10 nM, 37° C. overnight; bafilomycin A 20 nM 4 hours. How it is done:
Prior to fixation with 4% paraformaldehyde, the cells were treated with bafilomycin A (20 nM), an inhibitor of the late phase of autophagy, for 4 hours. Fluorescent images were recorded digitally with a multiphoton microscope. […]

For series [9], the system named is mouse bone marrow derived macrophages (BMDMs). Kind of series: Cytokine production in LPS-activated macrophages (ELISA, qPCR). Format: cell-based. How it is done: Culture supernatants were harvested 24 hours (h) after LPS stimulation and analyzed for cytokine production by enzyme-linked immunosorbent assay (ELISA). Total RNA was isolated 4 h after LPS stimulation and analyzed by real time quantitative polymerase chain reaction (PCR) for IL-12p35 and IL-12/IL-23p40 genes. Data are expressed relative to levels of glyceraldehyde 3-phosphate dehydrogenase (GAPDH) levels and represent three independent experiments.
The dipeptide compounds and their relative inhibitory results on the βcomponent of the human immunoproteasome (β5i) and constitutive proteasome (β5c) are described in Examples 151 and 152.
For orientation: ELISA stands for enzyme-linked immunosorbent assay.

For series [10], the system named is Karpas cells. Kind of series: Accumulation of poly-ubiquitinylated proteins in Karpas cells (anti-ub blot). The format is cell-based, human. The following applies: 24 hours treatment. How it is done:
FIGS. 5A-C show experimental results relating to SAR studies and target engagement inside the cells. FIG. 5A is a graph showing experimental results relating to inhibition of i-20S β5i and c-20S β5c by selected dipeptides. […] FIG. 5C is an image of an SDS-page gel showing accumulation of poly-ubiquitinylated (ub) proteins. Karpas cells were treated with dipeptides, or with bortezomib as a control, at indicated concentrations for 24 hours, and the poly-ub proteins in the lysates were blotted with anti-ub antibody and visualized with a second antibody directed against the first antibody and tagged with a dye that absorbs infrared light (Odyssey® CLx imaging system, LICOR).

The subject of series [11] is mouse i-20S β5i. Kind of series: Predicted inhibition of mouse i-20S β5i over mouse c-20S β5c. Format: biochemical. The note with it: predicted from sequence identity.
For series [12], the system named is Karpas 1106p cells. In words: Cytotoxicity (LD50) against Karpas lymphoma cells. Format: cell-based, human. The note with it: Table 4.
Series [13] concerns mouse bone marrow derived macrophages (BMDMs). Kind of series: Cytotoxicity against BMDMs. The note with it: concentrations up to 50 μM.
Series [14] relates to TNBS-induced colitis. Kind of series: TNBS-induced colitis in mice.
In series [15] the test system is 4T1 mammary carcinoma. The following applies: i.p. daily 6 mg/kg from Day 10, sacrifice Day 20; p<0.05.
The test system of series [16] is mouse bone marrow derived macrophages (BMDMs). The note with it: Muchamuel et al. 2009; cited from earlier work.

`CC(=O)N[C@H]1C(O)O[C@H](CO)[C@@H](O)[C@@H]1O[C@H](C)C(=O)N[C@@H](C)C(=O)N[C@H](CCC(=O)O)C(N)=O` (mixture of isomers) [MDP, muramyl dipeptide]: the protection from colitis entry in [1] was “protected mice from colitis”.

In general, IC50 refers to the concentration at which inhibition is half-maximal. As for `CC(C)(C)ONC(=O)C[C@H](NC(=O)CCc1ccccc1)C(=O)N[C@@H](Cc1ccc(F)cc1)C(=O)NCc1cccc2ccccc12` [DPLG-3], the mode of inhibition entry in series [2] is listed as “competitive inhibition”. For the same compound, the IC50 in series [3] was 110 nM. This compound gave an LD50 in [4] of 2.04 µM. Further, the cytotoxicity entry in [5] is listed as “not cytotoxic”. Further, in series [6], the cytotoxicity entry was “not cytotoxic”. In addition, the cytotoxicity entry in [7] is given as “not cytotoxic”. In addition, the induction of autophagy entry in series [8] is “induces autophagy”. For the same compound, in series [9], the IL-10 production entry is recorded as “no significant effects”; the “sensitivity of IL-12 and IL-23 production vs TNF-α (factor)” value is 10-20. Moreover, in [9] (LPS 1 μg/ml, 24 h, ELISA), the “production of IL-12” value is “dose-dependently inhibited”, the “production of IL-12/IL-23p40” value is recorded as “dose-dependently inhibited” and the “production of TNF-α” value is reported as “dose-dependently inhibited”. Besides, the “transcription of P35 and P40” value in series [9] (mRNA 4 h after LPS, qPCR relative to GAPDH) is “reduced”. Also, the IL-6 production entry in series [9] (on its own) was “dose-dependently induced”. In addition, in series [10], the “accumulation of poly-ubiquitinylated proteins” value is recorded as “did not cause accumulation”. Also, in series [11], the “inhibition of mouse i-20S β5i over mouse c-20S β5c” value was “potently and selectively inhibit”. For the same compound, the “LD50 Karpas” value in [12] was found to be 2.04 µM. For the same compound, the cytotoxicity entry in series [13] was “not cytotoxic”. In addition, the adverse effects result in series [14] (I.P. 3-12 mg/kg, TNBS mice) is recorded as “did not cause detectable adverse effects”. In addition, the colitis-induced weight loss entry in [14] (I.P. at day −1, 1 and 3, 3, 6 and 12 mg/kg, dose-dependent) is “strongly inhibited colitis-induced weight loss”. Also, the “colitis-induced weight loss / pathogenesis” value in series [14] (one-time i.v. injection (6 mg/kg) at time of TNBS challenge, WT mice) is on record as “strongly inhibited colitis-associated pathogenesis; also recorded: strongly inhibited colitis-induced weight loss”. In addition, in series [15], the “tumor size and weight” value was “reducing the size and weight”.

As for `COc1ccc(C[C@H](NC(=O)[C@H](C)NC(=O)CN2CCOCC2)C(=O)N[C@@H](Cc2ccccc2)C(=O)[C@]2(C)CO2)cc1` [ONX 0914], the “effect on cytokines analyzed” value in series [16] was “inhibitory”.
